The values below come from patent publication US20260337253A1, “INHIBITION OF GUT BACTERIA” (priority 2025, published 2026).

As a reminder, the EC50 is the midpoint of the concentration-response curve. A lower EC50 goes with higher potency in that assay.

The structures appear in SMILES notation. Non-standard residues stand in square brackets, D forms with d. Residues, ends and D or L forms follow the SMILES beside them. *: point of attachment. boroGlu = O=C(O)CC[C@H](N*)B(O)O; Gly(cPr) = N[C@H](C(=O)O)C1CC1

The target of the assay is His6-CylA-27-412 (Enterococcus faecalis, UniProt A0A2P6AWB8). Put plainly: In vitro co-operative pore formation assay (pyranine-encapsulated DOPC liposomes, mCylLS:mCylLL). In kind it is biochemical.
Sequence of His6-CylA-27-412 (A0A2P6AWB8 entry or part of it): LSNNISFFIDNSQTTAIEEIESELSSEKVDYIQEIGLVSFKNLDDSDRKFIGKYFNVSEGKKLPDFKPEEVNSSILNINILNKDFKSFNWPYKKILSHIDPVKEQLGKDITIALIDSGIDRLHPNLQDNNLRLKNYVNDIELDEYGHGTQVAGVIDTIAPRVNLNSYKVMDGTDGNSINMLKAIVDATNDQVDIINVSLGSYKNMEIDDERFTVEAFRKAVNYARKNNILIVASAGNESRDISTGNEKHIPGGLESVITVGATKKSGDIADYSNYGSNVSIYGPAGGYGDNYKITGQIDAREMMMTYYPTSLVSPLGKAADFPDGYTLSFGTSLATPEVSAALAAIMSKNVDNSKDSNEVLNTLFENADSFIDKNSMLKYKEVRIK

Description: In vitro pore formation assay for determining inhibitor effectiveness with high sensitivity. The assay uses pore formation as an indicator of toxin maturation. […] Pore formation dissipates a pH gradient between the interior of the liposome and the surrounding buffer increasing pyranine fluorescence.
Within the liposomes was a buffer of lower pH (6.0), and therefore any pore formation or membrane disruption would result in an increase in internal pH, which increases the fluorescence signal of the pyranine. In this way, pyranine fluorescence can be correlated to toxin activation allowing for the determination of EC50 values.
To a well in a black 96-well plate (200 μL) was added 90 μL high pH buffer (5 mM MES, 5 mM Tricine, 5 mM NaCl, pH 7.4) containing CylA (4 nM final concentration). After adding inhibitor, the mixture was incubated at room temperature for 10 min then freshly prepared (no more than 2 days old) pyranine encapsulated DOPC liposomes were added such that the total DOPC concentration was 80 μM. […] The resulting curves were max-min normalized yielding the fraction of permeabilized liposomes. […] This experiment was performed in duplicate or triplicate for each inhibitor at each concentration. […] Errors presented are those calculated by Origin 7 during the fitting process.

`CC(=O)NCC(=O)N[C@@H](CC(=O)O)C(=O)N[C@H](C(=O)N[C@@H](CCC(N)=O)C(=O)N[C@@H](C)C(=O)N[C@@H](CCC(=O)O)B(O)O)C1CC1` [Compound 9, Ac-Gly-Asp-Cpg-Gln-Ala-Glu-BA] (Ac-GD[Gly(cPr)]QA-boroGlu) yielded an EC50 of 12.5 ± 1.4 nM.
